Test results published in patent US7101878B1 (Agouron Pharmaceuticals, Inc., priority 1998, dated 2006).

What was measured:
rat GnRH receptor = target: T1, rat GnRH receptor (Rattus norvegicus, UniProt P30969); test: Radioligand binding, 125I-GnRH-A, rat pituitary membranes; parameters: membranes were prepared from rat pituitary; from tissue; host or cells: rat pituitary; details: read-out: rGnRH IC50
T1 sequence (P30969 1-327): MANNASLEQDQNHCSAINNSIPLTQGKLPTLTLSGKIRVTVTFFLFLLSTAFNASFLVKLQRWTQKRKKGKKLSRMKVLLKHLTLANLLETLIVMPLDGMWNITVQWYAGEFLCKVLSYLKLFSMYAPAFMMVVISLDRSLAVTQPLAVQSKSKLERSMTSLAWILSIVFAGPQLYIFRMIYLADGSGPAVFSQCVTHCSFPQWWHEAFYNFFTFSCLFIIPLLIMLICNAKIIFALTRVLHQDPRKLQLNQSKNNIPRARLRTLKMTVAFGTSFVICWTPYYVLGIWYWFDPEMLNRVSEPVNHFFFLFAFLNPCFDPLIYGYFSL
Procedure: All compounds were diluted in 1% DMSO (final assay concentration) in binding assay buffer. […] Reactions were terminated by rapid filtration onto 96-well Packard GF/C filters soaked in 0.1% polyethyleneimine. Filters were washed three times with PBS buffer, dried and counted on a Packard Topcount by liquid scintillation counting.
Assay conditions were identical for assessing compound activities at other species. […] IC50 values for control peptides and test compounds were calculated utilizing GraphPad Prism™ software.
The reaction mixture was vortexed and incubated for 1 min at room temperature. After one min, the mixture was vortexed and allowed to incubate for an additional minute. 2 ml of 0.5 M acetic acid/1% BSA was added to the reaction tube and the mixture was added to a C18 Sep-Pak cartridge. The cartridge was washed with subsequent washes of 5 ml H2O and 5 ml 0.5M acetic acid and then eluted with 5×1 ml of 60% CH3CN/40% 0.5M acetic acid. The eluate was diluted with 3× volume of HPLC buffer A (0.1% TFA in H2O) and loaded onto a C18 column. […] The radioactive fractions (750 ed/fraction) are collected into clean polypropylene tubes containing 100 μl of 10% BSA. Fractions were assessed for biological activity by radioligand binding.

human GnRH receptor = target: T2, human GnRH receptor (Homo sapiens, UniProt P30968); test: Radioligand binding, 125I-GnRH-A displacement, membranes of HEK 293 cells with human GnRH receptor; details: read-out: hGnRH IC50
T2 construct: expressed in transfected cells; host or cells: HEK 293 (hGnRH-R/293, from Dr. Stuart Sealfon)
T2 sequence (P30968 1-328): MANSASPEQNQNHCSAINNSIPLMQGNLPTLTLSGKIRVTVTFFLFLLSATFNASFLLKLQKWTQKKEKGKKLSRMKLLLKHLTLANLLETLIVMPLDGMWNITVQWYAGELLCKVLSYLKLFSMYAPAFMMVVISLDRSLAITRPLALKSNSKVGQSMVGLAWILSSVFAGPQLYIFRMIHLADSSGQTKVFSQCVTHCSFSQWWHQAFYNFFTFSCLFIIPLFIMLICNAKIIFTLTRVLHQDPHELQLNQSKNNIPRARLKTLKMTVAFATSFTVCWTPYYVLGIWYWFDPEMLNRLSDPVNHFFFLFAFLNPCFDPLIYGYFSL
Summary of the method: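 Bound tracer was separated by filtration through polyethyleneimine-soaked GF/C filters and counted by liquid scintillation. IC50 from curve fitting; other species were tested under the same conditions.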

[1] = Metabolism rate, pmol/min/mg at 1 μM, rat male; format: in vitro ADME; details: 1 μM compound
mouse GnRH receptor = target: T3, mouse GnRH receptor (Mus musculus, UniProt Q01776); test: Radioligand binding, 125I-GnRH-A, 293 cells expressing mouse GnRH receptors; details: read-out: mGnRH IC50
T3 construct: expressed in transfected cells; host or cells: 293 cells
T3 sequence (Q01776 1-327): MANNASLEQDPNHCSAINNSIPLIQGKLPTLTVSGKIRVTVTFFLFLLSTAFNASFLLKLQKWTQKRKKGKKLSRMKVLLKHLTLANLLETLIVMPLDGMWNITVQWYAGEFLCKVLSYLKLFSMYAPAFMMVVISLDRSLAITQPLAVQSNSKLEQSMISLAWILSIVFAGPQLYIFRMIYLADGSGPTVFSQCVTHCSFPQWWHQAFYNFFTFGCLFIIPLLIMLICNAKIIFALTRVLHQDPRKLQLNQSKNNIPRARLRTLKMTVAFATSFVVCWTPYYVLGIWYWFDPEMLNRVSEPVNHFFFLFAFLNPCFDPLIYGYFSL
Summary of the method: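 Bound label captured on 0.1% polyethyleneimine-treated GF/C filters, washed three times with PBS, counted. IC50 derived; identical set-up for every species.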

[2] = Metabolism rate, pmol/min/mg at 1 μM, human; format: in vitro ADME; details: 1 μM compound
[3] = test system: LH levels in castrated rats; test: Castrated male rat model, LH suppression; format: in vivo
Description: Experimental Protocol: Male Sprague-Dawley (225-250 g) rats were castrated and allowed 10 days postoperative recovery. Ten days post castration animals were instrumented with indwelling femoral venous and arterial catheters to facilitate remote infusions and blood sampling. On the day of the experiment, animals were allowed to acclimate to the procedure room while residing in their home cage. Basal blood samples were drawn from all animals. Following basal sampling, either vehicle (10% DMSO, 10% cremophor/saline), Antide (1.0 μg) or compound 11 (10 mg/kg) was administered intravenously. Blood samples were drawn 10, 60, 90, 120, 180, 240 minutes after injections. Blood was centrifuged, serum collected and stored in −70° freezer until assayed. Serum samples were analyzed using DSL-4600 ACTIVE LH coated-tube immunoradiometric assay kit from Diagnostic Systems Laboratories, Inc.
Surgical removal of the gonads removes circulating testosterone and eliminates the negative feedback of testosterone on the hypothalamus. […] This model seems suitable for evaluating small molecule GnRH antagonists.
Male Sprague-Dawley ([…]) rats were castrated via the scrotal approach under halothane anesthesia. Animals were allowed 14 days post operative recovery prior to study. Thirteen days following castration, animals were anesthetized with halothane and instrumented with indwelling jugular vein cannula. Details of the cannulation procedure have been described previously {Harms and Ojeda, 1974)}. On study day, animals were allowed to acclimate to the procedure room while residing in their home cage. Basal blood samples were drawn from all animals. Immediately following basal sampling, vehicle or test compounds were administered by various routes. The routes of administration employed were intravenous (iv), intramuscular (im), intraperitoneal (ip), subcutaneous (sc) and oral (po). Blood samples were drawn into heparin containing tubes at multiple time points post treatment. Blood was centrifuged immediately, plasma collected and stored in −20° freezer until assayed. Plasma samples were analyzed using DSL-4600 ACTIVE LH coated-tube immunoradiometric assay kit from Diagnostic Systems Laboratories, Inc.
Formulation #1 (denoted with superscript 1): 10% DMSO, 10% Cremophor EL and 80% physiological saline.
Formulation #2 (denoted with superscript 2): 10% Cremophor EL and 90% physiological saline.

[4] = Pharmacokinetic studies / bioavailability in rats; format: in vivo, rat; details: for Cmax / Tmax / half-life: female, rat, plasma; for Cmax / Tmax: po, 10 mg/kg, p.o. 10 mg/kg
[5] = rat female, 5 mg/ml solution in 10% DMSO 10% cremophor 80% saline

SMILES | IC50 (rat GnRH receptor) | IC50 (human GnRH receptor) | IC50 (mouse GnRH receptor) | Human pmol/min/mg 1 μM [2] | other results
COC(=O)[C@H]1CC[C@H](CNC(=O)c2ccc(Cc3cc4c(cc3C)C(C)(C)CCC4(C)C)o2)CC1 [Compound 68] | 890 nM | 90 nM | 1010 nM | 2716 pmol/min/mg | Rat male pmol/min/mg 1 μM [1]: 8125 pmol/min/mg
Cc1cc2c(cc1Cc1ccc(C(=O)NCC3CCC(CNc4nccc(NCC5CCCO5)n4)CC3)o1)C(C)(C)CCC2(C)C (stereo not drawn) [Compound 92] | 27 nM | 80 nM | 42 nM | 241 pmol/min/mg | Rat male pmol/min/mg 1 μM [1]: 1282 pmol/min/mg
Cc1cc2c(cc1Cc1ccc(C(=O)NCc3cccc4ccccc34)o1)C(C)(C)CCC2(C)C [Compound 95] | 60 nM | 31 nM | 21 nM | 283 pmol/min/mg | Rat male pmol/min/mg 1 μM [1]: 3356 pmol/min/mg
Cc1cc2c(cc1Cc1ccc(C(=O)Nc3ccc4[nH]ccc4c3)o1)C(C)(C)CCC2(C)C [Compound 96] | 90 nM | 40 nM | 130 nM | 182 pmol/min/mg | Rat male pmol/min/mg 1 μM [1]: 1692 pmol/min/mg
COc1ccc(NC(=O)c2ccc(Cc3cc4c(cc3C)C(C)(C)CCC4(C)C)o2)c(OC)c1 [Compound 99] | 108 nM | 56 nM | 105 nM | 353 pmol/min/mg | Rat male pmol/min/mg 1 μM [1]: 2549 pmol/min/mg
Cc1cc2c(cc1Cc1ccc(C(=O)Nc3ccc4[nH]ncc4c3)o1)C(C)(C)CCC2(C)C [Compound 109] | 140 nM | 75 nM | 140 nM | 130 pmol/min/mg | Rat male pmol/min/mg 1 μM [1]: 1055 pmol/min/mg
Cc1cc2c(cc1Cc1ccc(C(=O)Nc3cccc(B(O)O)c3)o1)C(C)(C)CCC2(C)C [Compound 119] | 1300 nM |  |  |  | % Max LH Suppression ([3]; 5.0 mg/kg iv): 63%; time of % Max LH Suppression ([3]; 5.0 mg/kg iv): 1 h; ≧50% Suppression Duration ([3]; 5.0 mg/kg iv): 1 h; % Max LH Suppression ([3]; 10 mg/kg iv): 61%; time of % Max LH Suppression ([3]; 10 mg/kg iv): 1 h; ≧50% Suppression Duration ([3]; 10 mg/kg iv): 1 h; % Max LH Suppression ([3]; 20 mg/kg ip): 79%; time of % Max LH Suppression ([3]; 20 mg/kg ip): 2 h; ≧50% Suppression Duration ([3]; 20 mg/kg ip): 2 h; % Max LH Suppression ([3]; 20 mg/kg po): 63%; Range of Plasma Conc. ([3]; 20 mg/kg po): 0.1 µM; time of % Max LH Suppression ([3]; 20 mg/kg po): 2 h; ≧50% Suppression Duration ([3]; 20 mg/kg po): 2 h; Range of Plasma Conc. ([3]; 20 mg/kg sc): 0.2 µM
COc1cccc(OC)c1NC(=O)c1ccc(Cc2c(C)cc(C)cc2C)o1 [Compound 126] | 325 nM | 128 nM | 684 nM | 544 pmol/min/mg | Cmax [4, 5]: 20 nM; Tmax [4, 5]: 0.5 h; half-life ([4]; rat female): 1.9 h; Fp.o. [4, 5]: 2% (10 mg/kg)^10
Cc1cc2c(cc1Cc1ccc(C(=O)NCC3CCN(c4nccc(NCC5CCCO5)n4)CC3)o1)C(C)(C)CCC2(C)C (stereo not drawn) [Compound 128] | 170 nM | 220 nM | 220 nM |  | 
Cc1cc2c(cc1Cc1ccc(C(=O)NCC3CCCC(CNc4ncccn4)C3)o1)C(C)(C)CCC2(C)C (stereo not drawn) [Compound 138] | 1630 nM | 200 nM | 1570 nM |  | 
Cc1cc2c(cc1Cc1ccc(C(=O)NCc3cccc(CN)c3)o1)C(C)(C)CCC2(C)C [Compound 139] | 113 nM | 110 nM | 150 nM |  | 
Cc1cc2c(cc1Cc1ccc(C(=O)NCc3ccc(CNc4nccc(NCC5CCCO5)n4)cc3)o1)C(C)(C)CCC2(C)C (stereo not drawn) [Compound 141] | 35 nM | 150 nM | 64 nM |  | 
COCCCNc1ccnc(NCc2cccc(CNC(=O)c3ccc(Cc4cc5c(cc4C)C(C)(C)CCC5(C)C)o3)c2)n1 [Compound 153] | 11 nM | 120 nM | 21 nM |  | 
COc1cc(OC)c(C(C)=O)cc1NC(=O)c1ccc(Cc2cc3c(cc2C)C(C)(C)CCC3(C)C)o1 [Compound 170] | 30 nM | 50 nM | 22 nM |  | Fp.o. ([4]; rat male, p.o. 20 mg/kg, vehicle per footnote (DMSO/cremophor/saline)): 0 (20 mg/kg)^7%
Cc1cc2c(cc1Cc1ccc(C(=O)NC[C@H]3CC[C@H](CNc4ccnc(NC[C@@H]5CCCO5)n4)CC3)o1)C(C)(C)CCC2(C)C [Compound 174] | 385 nM | 220 nM | 570 nM |  | 
COc1cc(OC)c(NC(=O)c2ccc(Cc3cc(C)cc4c3OCCC4(C)C)o2)c(OC)c1 [Compound 190.5] |  | 350 nM |  | 1124 pmol/min/mg | 
COc1cc(OC)c(NC(=O)c2ccc(Cc3cc(C(C)(C)C)ccc3OC)o2)c(OC)c1 [Compound 203] | 58 nM | 130 nM | 62 nM |  | 
CCC(C)(C)c1ccc(OC)c(Cc2ccc(C(=O)Nc3c(OC)cccc3OC)o2)c1 [Compound 231] | 51 nM | 5 nM | 24 nM |  | 
CCC(C)(C)c1ccc(OC)c(Cc2ccc(C(=O)Nc3c(OC)cc(OC)cc3OC)o2)c1 [Compound 232] | 5.7 nM | 19 nM | 9 nM |  | 
COc1cc(OC)c(NC(=O)c2ccc(Cc3c(OC)cc(C)c(Cl)c3C)o2)c(OC)c1 [Compound 299] | 290 nM | 80 nM | 105 nM |  | Cmax [4, 5]: 1740 nM; Tmax [4, 5]: 1 h; half-life ([4]; rat female): 2.4 h; Fp.o. [4, 5]: 72% (10 mg/kg)^10
COc1cc(OC)c(NC(=O)c2ccc(Cc3cc(-c4ccccc4)c(C)cc3C)o2)c(OC)c1 [Compound 302] | 220 nM | 167 nM | 119 nM |  | 
